The target of one assay is GDP-loaded KRAS G12D (Homo sapiens (Human), UniProt P01116, G12D). As to the kind of experiment: KRAS G12D (GDP) biochemical assay (TR-FRET probe displacement). In kind it is binding. The note with it: 2 hours. Put shortly: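 Compound pre-incubated 30 min with GDP-loaded KRAS G12D in 50 mM Hepes pH 7.4, 150 mM NaCl, 5 mM MgCl2, 0.005% Tween-20, then Eu-streptavidin and TR-FRET probe added. After 2 h at room temperature, TR-FRET ratio read; IC50 is 50% ratio decrease, sigmoidal fit.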
On the technique in general: TR-FRET usually uses a lanthanide donor and a delayed reading to cut background.

The next assay concerns GP2D (KRAS G12D) cells. As to the kind of experiment: 2D cell viability assay (CellTiter-Glo). In kind it is cell-based. As to conditions: 4 days. In short, it runs like this:
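GP2D (KRAS G12D) cells, 1000/well in RPMI + 10% FBS, were plated onto compound (1:3 DMSO series) and grown 4 days at 37 °C, 5% CO2 in 2D. CellTiter-Glo luminescence was read; EC50 is the concentration giving 50% signal decrease, from sigmoidal fit.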
On the technique in general: Cellular ATP, detected with luciferase, serves as a proxy for viable cell number.

The test system of the next assay is AsPC-1 (KRAS G12D) cells. As to the kind of experiment: 3D cell viability assay (spheroids, CellTiter-Glo 3D). Format: cell-based. As to conditions: AsPC-1 cells, 3D spheroids, 4 days. How it is done: Example C. 3D Cell Viability Assay
Compounds were tested in a 384-well format for their ability to inhibit the viability of AsPC-1 (KRAS G12D) cells in 3D assays. On day 0, 1000 cells/well (80 μL volume per well) in DMEM with 10% FBS, and Penicillin-Streptomycin-Glutamine were plated in 384-well Ultra-Low Attachment Spheroid Microplates (Corning, Catalog #3830) on the BioTEK EL406 liquid dispenser with a 5 μL dispensing cassette (BioTek 7170011). The plates were incubated at 37° C., 5% CO2 for 3 days to allow spheroid formation. On day 3, compounds were serially diluted (1:3) in DMSO. The Biomek FX was used to add 400 nL of test molecule per well. The plates were incubated at 37° C., 5% CO2 for 4 days before addition of CellTiter-Glo 3D (Promega, Catalog #9683) reagent and measurement of luminescence signal. EC50 values were defined as the compound concentration that causes a 50% decrease in luminescence signal and were calculated using a sigmoidal dose-response model to generate curve fits.

As usually defined, the IC50 is the midpoint of a concentration-inhibition curve. Broadly, the EC50 is the concentration that produces a half-maximal response. A lower EC50 goes with a more potent agent.

The compound “4-((5S,5aS,6S,9R)-5-ethyl-1-fluoro-12-(((2R,7aS)-2-fluorotetrahydro-1H-pyrrolizin-7a(5H)-yl)methoxy)-5a,6,7,8,9,10-hexahydro-5H-4-oxa-3,10a,11,13,14-pentaaza-6,9-methanonaphtho[1,8-ab]heptalen-2-yl)-5-ethynyl-6-fluoronaphthalen-2-ol [Example 80]” had an IC50 on GDP-loaded KRAS G12D of 0.1 nM. The EC50 is 2.2 nM in the assay with GP2D (KRAS G12D) cells and 2 nM in the assay on AsPC-1 (KRAS G12D) cells.
For the compound `C#Cc1c(F)ccc2cccc(-c3nc4c5c(nc(OC[C@@]67CCCN6C[C@H](F)C7)nc5c3F)N3C[C@H]5CC[C@H](N5)C3C[C@@H]4C)c12` (stereo in doubt) [Example 93, (4S,5aS,6S,9R)-2-(8-ethynyl-7-fluoronaphthalen-1-yl)-1-fluoro-12-(((2R,7aS)-2-fluorotetrahydro-1H-pyrrolizin-7a(5H)-yl)methoxy)-4-methyl-4,5,5a,6,7,8,9,10-octahydro-3,10a,11,13,14-pentaaza-6,9-methanonaphtho[1,8-ab]heptalene], the IC50 at GDP-loaded KRAS G12D amounted to 2.5 nM. The EC50 came out at 26.6 nM in the assay on GP2D (KRAS G12D) cells (GP2d, 96 h) and 82 nM in the assay on AsPC-1 (KRAS G12D) cells (Homo sapiens, ASPC1, 96 h).
The matching figures for `C#Cc1c(F)ccc2cc(O)cc(-c3nc4c5c(nc(OC[C@@]67CCCN6C[C@H](F)C7)nc5c3F)N3C[C@H]5CC[C@H](N5)C3C[C@@H]4C)c12` (stereo in doubt) [Example 94, 5-ethynyl-6-fluoro-4-((4S,5aS,6S,9R)-1-fluoro-12-(((2R,7aS)-2-fluorotetrahydro-1H-pyrrolizin-7a(5H)-yl)methoxy)-4-methyl-4,5,5a,6,7,8,9,10-octahydro-3,10a,11,13,14-pentaaza-6,9-methanonaphtho[1,8-ab]heptalen-2-yl)naphthalen-2-ol]: 0.1 nM, 0.6 nM and 2.2 nM.
The matching figures for `C#Cc1c(F)ccc2cc(O)cc(-c3nc4c5c(nc(OC[C@@]67CCCN6C[C@H](F)C7)nc5c3F)N3C[C@H]5CC[C@H](N5)C3C[C@H]4C)c12` (stereo in doubt) [Example 96, 5-ethynyl-6-fluoro-4-((4R,5aS,6S,9R)-1-fluoro-12-(((2R,7aS)-2-fluorotetrahydro-1H-pyrrolizin-7a(5H)-yl)methoxy)-4-methyl-4,5,5a,6,7,8,9,10-octahydro-3,10a,11,13,14-pentaaza-6,9-methanonaphtho[1,8-ab]heptalen-2-yl)naphthalen-2-ol]: 0.3 nM, 0.5 nM and 1.9 nM.
On GDP-loaded KRAS G12D, `C#Cc1c(F)ccc2cc(O)cc(-c3nc4c5c(nc(OC[C@@]67CCCN6C[C@@H](OC(C(F)(F)F)(C(F)(F)F)C(F)(F)F)C7)nc5c3F)N3C[C@H]5CC[C@H](N5)[C@H]3CC4)c12` (stereo in doubt) [Example 134, 5-ethynyl-6-fluoro-4-((5aR,6S,9R)-1-fluoro-12-((cis-2-((1,1,1,3,3,3-hexafluoro-2-(trifluoromethyl)propan-2-yl)oxy)tetrahydro-1H-pyrrolizin-7a(5H)-yl)methoxy)-4,5,5a,6,7,8,9,10-octahydro-3,10a,11,13,14-pentaaza-6,9-methanonaphtho[1,8-ab]heptalen-2-yl)naphthalen-2-ol] returned an IC50 of 0.5 nM. Besides, the EC50 in the assay on GP2D (KRAS G12D) cells (GP2d, 96 h) came out at 2.2 nM; with AsPC-1 (KRAS G12D) cells (Homo sapiens, ASPC1, 96 h) it was 31 nM.
The matching figures for `C#Cc1c(F)ccc2cc(O)cc(-c3nc4c5c(nc(OC[C@]67CCCN6C[C@@H](OC(F)(F)F)C7)nc5c3F)N3C[C@H]5CC[C@H](N5)[C@H]3CC4)c12` (stereo in doubt) [Example 141, 5-ethynyl-6-fluoro-4-((5aR,6S,9R)-1-fluoro-12-((trans-2-(trifluoromethoxy)tetrahydro-1H-pyrrolizin-7a(5H)-yl)methoxy)-4,5,5a,6,7,8,9,10-octahydro-3,10a,11,13,14-pentaaza-6,9-methanonaphtho[1,8-ab]heptalen-2-yl)naphthalen-2-ol]: 0.2 nM, 0.4 nM and 3.7 nM.
The matching figures for `Oc1cc(-c2nc3c4c(nc(OC[C@@]56CCCN5C[C@H](F)C6)nc4c2F)N2C[C@H]4CC[C@H](N4)[C@H]2CO3)c2c(F)c(F)ccc2c1` [Example 1, 5,6-difluoro-4-((5aS,6S,9R)-1-fluoro-12-(((2R,7aS)-2-fluorotetrahydro-1H-pyrrolizin-7a(5H)-yl)methoxy)-5a,6,7,8,9,10-hexahydro-5H-4-oxa-3,10a,11,13,14-pentaaza-6,9-methanonaphtho[1,8-ab]heptalen-2-yl)naphthalen-2-ol]: 0.5 nM, 19 nM and 170 nM.
The matching figures for `C#Cc1c(F)ccc2cc(O)cc(-c3nc4c5c(nc(OC[C@@]67CCCN6C[C@H](F)C7)nc5c3F)N3C[C@H]5CC[C@H](N5)[C@H]3CO4)c12` [Example 2, 5-ethynyl-6-fluoro-4-((5aS,6S,9R)-1-fluoro-12-(((2R,7aS)-2-fluorotetrahydro-1H-pyrrolizin-7a(5H)-yl)methoxy)-5a,6,7,8,9,1O-hexahydro-5H-4-oxa-3,10a,11,13,14-pentaaza-6,9-methanonaphtho[1,8-ab]heptalen-2-yl)naphthalen-2-ol]: 0.2 nM, 6 nM and 42 nM.
Consider `C#Cc1c(F)ccc2cc(O)cc(-c3nc4c5c(nc(OCC6(CN7CCC8(CC7)CC8)CC6)nc5c3F)N3C[C@H]5CC[C@H](N5)[C@H]3CC4)c12` [Example 177, 4-((5aR,6S,9R)-12-((1-((6-azaspiro[2.5]octan-6-yl)methyl)cyclopropyl)methoxy)-1-fluoro-4,5,5a,6,7,8,9,10-octahydro-3,10a,11,13,14-pentaaza[6,9]methanonaphtho[1,8-ab]heptalen-2-yl)-5-ethynyl-6-fluoronaphthalen-2-ol], for which the EC50 with GP2D (KRAS G12D) cells (GP2d, 96 h) is 1.5 nM; in the assay on AsPC-1 (KRAS G12D) cells (Homo sapiens, ASPC1, 96 h), 20 nM.
For `C#Cc1c(F)ccc2cccc(-c3nc4c5c(nc(OC[C@@]67CCCN6[C@H](COc6ncncc6C(F)F)CC7)nc5c3F)N3C[C@H]5CC[C@H](N5)[C@H]3CCC4)c12` [Example 206, (6aR,7S,10R)-13-(((3S,7aS)-3-(((5-(difluoromethyl)pyrimidin-4-yl)oxy)methyl)tetrahydro-1H-pyrrolizin-7a(5H)-yl)methoxy)-2-(8-ethynyl-7-fluoronaphthalen-1-yl)-1-fluoro-5,6,6a,7,8,9,10,11-octahydro-4H-3,11a,12,14,15-pentaaza-7,10-methanocyclohepta[4,5]cycloocta[1,2,3-de]naphthalene], the IC50 at GDP-loaded KRAS G12D stood at 0.04 nM. A half-maximal response in the assay on GP2D (KRAS G12D) cells (GP2d, 96 h) (EC50) required 1.6 nM.
The like results for `C#Cc1c(F)ccc2cccc(-c3nc4c5c(nc(OC[C@@]67CCCN6[C@H](COc6nccnc6C(F)F)CC7)nc5c3F)N3C[C@H]5CC[C@H](N5)[C@H]3CCC4)c12` [Example 207, (6aR,7S,10R)-13-(((3S,7aS)-3-(((3-(difluoromethyl)pyrazin-2-yl)oxy)methyl)tetrahydro-1H-pyrrolizin-7a(5H)-yl)methoxy)-2-(8-ethynyl-7-fluoronaphthalen-1-yl)-1-fluoro-5,6,6a,7,8,9,10,11-octahydro-4H-3,11a,12,14,15-pentaaza-7,10-methanocyclohepta[4,5]cycloocta[1,2,3-de]naphthalene] were, in that order, 0.06 nM and 1 nM.
The compound `C#Cc1c(F)ccc2cccc(-c3nc4c5c(nc(OC[C@@]67CCCN6[C@H](COc6ccnc(C(F)F)n6)CC7)nc5c3F)N3C[C@H]5CC[C@H](N5)[C@H]3CCC4)c12` [Example 208, (6aR,7S,10R)-13-(((3S,7aS)-3-(((2-(difluoromethyl)pyrimidin-4-yl)oxy)methyl)tetrahydro-1H-pyrrolizin-7a(5H)-yl)methoxy)-2-(8-ethynyl-7-fluoronaphthalen-1-yl)-1-fluoro-5,6,6a,7,8,9,10,11-octahydro-4H-3,11a,12,14,15-pentaaza-7,10-methanocyclohepta[4,5]cycloocta[1,2,3-de]naphthalene] registered an IC50 at GDP-loaded KRAS G12D of 0.09 nM. This compound yielded a half-maximal effective concentration (EC50) in the assay with GP2D (KRAS G12D) cells (GP2d, 96 h) of 3.3 nM.
Consider “(6aR,7S,10R)-2-(8-ethynyl-7-fluoronaphthalen-1-yl)-1-fluoro-13-(((3S,7aS)-3-(((2-(trifluoromethyl)pyrimidin-4-yl)oxy)methyl)tetrahydro-1H-pyrrolizin-7a(5H)-yl)methoxy)-5,6,6a,7,8,9,10,11-octahydro-4H-3,11a,12,14,15-pentaaza-7,10-methanocyclohepta[4,5]cycloocta[1,2,3-de]naphthalene [Example 153]”, for which the IC50 on GDP-loaded KRAS G12D turned out to be 0.3 nM. In the assay on GP2D (KRAS G12D) cells, this compound displayed an EC50 of 4.3 nM.
